Laboratory results published in patent US9017692B2, “Antimicrobial agent, bacterial strain, biosynthesis, and methods of use” (priority 2011, dated 2015).
Values after ≈ are worked out from the molar mass of the structure shown. Where two headings read alike, the source gives them in different places.

Tests used:
[1] = system: ABA.2232; experiment: MIC, CLSI broth microdilution, Gram-negative clinical isolates; type: cell-based, Acinetobacter baumannii; conditions: Acinetobacter baumannii, read-out: Minimum inhibitory concentration (MIC)
Method: (§1) Plates were incubated at 35° C. for 24 h.
(§2) The activity of paenibacterin was also tested against clinical isolates of the following Gram-negative bacterial strains: four strains of the species Pseudomonas aeruginosa (PAE), three strains of the species Acinetobacter baumannii (ABA), two strains of the species Escherichia coli (ECO), and four strains of the species Klebsiella pneumoniae (KPN). Particularly, the strains of Gram-negative bacteria included polymyxin B-resistant (PMB-R) and polymyxin B-sensitive (PMB-S) strains of each above listed species. The MICs were determined using the above described CLSI broth microdilution method, in which the method was performed with both non-binding surface coated (NBS) and polystyrene (PS) 96-well plates (Tables 11 and 12, respectively). The MICs were generally lower in the NBS 96-well plates as compared to the PS 96-well plates.

[2] = system: ABA.2315; experiment: as above; type: cell-based, Acinetobacter baumannii; conditions: for MIC: Acinetobacter baumannii, NBS 96-well plates, read-out: Minimum inhibitory concentration (MIC); for Minimum inhibitory concentration (MIC): PS 96-well plates
Method: as §1, §2

[3] = system: ABA.1570; experiment: as above; type: cell-based, Acinetobacter baumannii; conditions: Acinetobacter baumannii, read-out: Minimum inhibitory concentration (MIC)
Method: as §1, §2

[4] = system: MSSA ATCC 29213 SAU.42; experiment: microbe, parasite or virus in culture; conditions: Staphylococcus aureus, ATCC29213|MSSA, read-out: Minimum inhibitory concentration (MIC)
Method: (§3) The activity of paenibacterin against several strains of Gram-positive and Gram-negative foodborne pathogens is summarized in Table 10. The data is reported as minimum inhibitory concentrations (MIC) as an average of three replicates for paenibacterin against the various listed bacterial strains. […] MICs were determined according to the CLSI broth microdilution method (see, Clinical and Laboratory Standards Institute (CLSI). 2009. Methods for dilution antimicrobial susceptibility tests for bacteria that grow aerobically; approved standard. […]. CLSI, Wayne, Pa.). Briefly, HPLC-purified paenibacterin was dissolved in methanol and diluted to appropriate concentration with cation-adjusted Mueller-Hinton II broth (Difco). Aliquots (25 μl) of serially-diluted paenibacterin was dispensed into wells of a 96-well plate; an equal amount of 1/10 diluted overnight bacterial culture was added to wells. Plates were incubated at 35° C. for 24 h. Cell growth after incubation was examined and determined using a microtiter plate reader at 600 nm. Concentration of paenibacterin is determined based on a molecular weight of 1604 Da.
(§4) The activity of paenibacterin was further tested against clinical isolates of the following Gram-positive bacteria: methicillin-sensitive Staphylococcus aureus (MSSA), methicillin-resistant S. aureus (MRSA), vancomycin-sensitive Enterococcus faecalis, vancomycin-resistant E. faecalis (VRE), Streptococcus pneumoniae, and laboratory derived daptomycin-resistant (DR) MSSA, MRSA, and VRE strains. The MICs were determined using the above described CLSI broth microdilution method, in which the method was performed with non-binding surface coated (NBS) 96-well plates.

[5] = system: DS-VRE ATCC 700802 EFS.807; experiment: microbe, parasite or virus in culture; conditions: Enterococcus faecalis, ATCC700802|VRE, read-out: Minimum inhibitory concentration (MIC)
Method: as §3, §4

[6] = system: DR-VRE from EFS.807 EFS.2731; experiment: microbe, parasite or virus in culture; conditions: Enterococcus faecalis, VRE, read-out: Minimum inhibitory concentration (MIC)
Method: as §3, §4

[7] = system: WT ATCC 49619 SPN.31; experiment: microbe, parasite or virus in culture; conditions: Streptococcus pneumoniae, ATCC49619, read-out: Minimum inhibitory concentration (MIC)
Method: as §3, §4

[8] = system: DR-MSSA from SAU.42 SAU.278; experiment: microbe, parasite or virus in culture; conditions: Staphylococcus aureus, MSSA, read-out: Minimum inhibitory concentration (MIC)
Method: as §3, §4

[9] = system: DR-MRSA from MW2 SP SAU.1616; experiment: microbe, parasite or virus in culture; conditions: Staphylococcus aureus, MRSA, read-out: Minimum inhibitory concentration (MIC)
Method: as §3, §4

[10] = system: WT ATCC 29212 EFS.43; experiment: microbe, parasite or virus in culture; conditions: Enterococcus faecalis, ATCC29212, read-out: Minimum inhibitory concentration (MIC)
Method: as §3, §4

[11] = system: MRSA ATCC 43300 SAU.399; experiment: microbe, parasite or virus in culture; conditions: Staphylococcus aureus, ATCC43300|MRSA, read-out: Minimum inhibitory concentration (MIC)
Method: as §3, §4

[12] = system: PAE.44; experiment: MIC, CLSI broth microdilution, Gram-negative clinical isolates; type: cell-based, Pseudomonas aeruginosa; conditions: for MIC: Pseudomonas aeruginosa, non-binding surface coated (NBS) 96-well plates, read-out: Minimum inhibitory concentration (MIC)
Method: as §1, §2

[13] = system: PAE.999; experiment: as above; type: cell-based, Pseudomonas aeruginosa; conditions: Pseudomonas aeruginosa, read-out: Minimum inhibitory concentration (MIC)
Method: as §1, §2

[14] = system: PAE.2281; experiment: as above; type: cell-based, Pseudomonas aeruginosa; conditions: Pseudomonas aeruginosa, read-out: Minimum inhibitory concentration (MIC)
Method: as §1, §2

[15] = system: PAE.2325; experiment: as above; type: cell-based, Pseudomonas aeruginosa; conditions: Pseudomonas aeruginosa, read-out: Minimum inhibitory concentration (MIC)
Method: as §1, §2

[16] = system: ATCC 25922 ECO.35; experiment: as above; type: cell-based, Escherichia coli; conditions: Escherichia coli, read-out: Minimum inhibitory concentration (MIC)
Method: as §1, §2

[17] = system: ECO.2276; experiment: as above; type: cell-based, Escherichia coli; conditions: Escherichia coli, read-out: Minimum inhibitory concentration (MIC)
Method: as §1, §2

[18] = system: PMB-S, KPN.2461; experiment: as above; type: cell-based, Klebsiella pneumoniae; conditions: for Minimum inhibitory concentration (MIC): KPN.2461, PS 96-well plates; for MIC: Klebsiella pneumoniae, KPN.2461 (PMB-S), NBS 96-well plates, read-out: Minimum inhibitory concentration (MIC)
Method: as §1, §2

[19] = system: KPN.2317; experiment: as above; type: cell-based, Klebsiella pneumoniae; conditions: for MIC: Klebsiella pneumoniae, read-out: Minimum inhibitory concentration (MIC)
Method: as §1, §2

[20] = system: PMB-R, KPN.2463; experiment: as above; type: cell-based, Klebsiella pneumoniae; conditions: for Minimum inhibitory concentration (MIC): KPN.2463, PS 96-well plates; for MIC: Klebsiella pneumoniae, KPN.2463 (PMB-R), NBS 96-well plates, read-out: Minimum inhibitory concentration (MIC)
Method: as §1, §2

[21] = system: KPN.674; experiment: as above; type: cell-based, Klebsiella pneumoniae; conditions: Klebsiella pneumoniae, read-out: Minimum inhibitory concentration (MIC)
Method: as §1, §2

[22] = ATCC25922, ECO.35 (ATCC 25922), NBS 96-well plates
[23] = ATCC25922, ECO.35, PS 96-well plates

Structure (SMILES)	MIC ([1]; NBS 96-well plates)	MIC ([1]; PS 96-well plates)	MIC [2]	Minimum inhibitory concentration (MIC) [2]	MIC ([3]; NBS 96-well plates)	MIC ([3]; PS 96-well plates)	MIC [4]	MIC [5]	MIC [10]	MIC [12]	MIC ([13]; NBS 96-well plates)	MIC ([13]; PS 96-well plates)	MIC ([14]; NBS 96-well plates)	MIC ([14]; PS 96-well plates)	MIC ([15]; NBS 96-well plates)	MIC ([15]; PS 96-well plates)	MIC [16, 22]	MIC [16, 23]	MIC ([17]; NBS 96-well plates)	MIC ([17]; PS 96-well plates)	further results
NC[C@H]1O[C@H](O[C@H]2[C@H](O)[C@@H](O[C@H]3O[C@H](CO)[C@@H](O)[C@H](N)[C@H]3O)[C@H](N)C[C@@H]2N)[C@H](N)C[C@@H]1O [tobramycin]	0.5 µg/mL (≈ 1.07 µM)	1 µg/mL (≈ 2.14 µM)	> 32 µg/mL	>32 µg/mL	32 µg/mL (≈ 68.4 µM)	16 µg/mL (≈ 34.2 µM)	0.5 µg/mL (≈ 1.07 µM)	> 32 µg/mL	8 µg/mL (≈ 17.1 µM)	0.5 µg/mL (≈ 1.07 µM)	32 µg/mL (≈ 68.4 µM)	> 32 µg/mL	1 to 2 µg/mL (≈ 2.14 to 4.28 µM)	1 µg/mL (≈ 2.14 µM)	> 32 µg/mL	> 32 µg/mL	1 µg/mL (≈ 2.14 µM)	1 µg/mL (≈ 2.14 µM)	1 to 2 µg/mL (≈ 2.14 to 4.28 µM)	2 µg/mL (≈ 4.28 µM)	MIC [6]: > 32 µg/mL; MIC [7]: 0.25 µg/mL (≈ 0.535 µM); MIC [8]: 0.5 µg/mL (≈ 1.07 µM); MIC [9]: 0.5 µg/mL (≈ 1.07 µM); MIC [11]: > 32 µg/mL; Minimum inhibitory concentration (MIC) ([12]; polystyrene (PS) 96-well plates): 0.5 µg/mL (≈ 1.07 µM); Minimum inhibitory concentration (MIC) [18]: 32 µg/mL (≈ 68.4 µM); MIC [18]: 32 µg/mL (≈ 68.4 µM); MIC ([19]; NBS 96-well plates): > 32 µg/mL; MIC ([19]; PS 96-well plates): > 32 µg/mL; Minimum inhibitory concentration (MIC) [20]: 32 µg/mL (≈ 68.4 µM); MIC [20]: 32 µg/mL (≈ 68.4 µM); MIC ([21]; NBS 96-well plates): 8 µg/mL (≈ 17.1 µM); MIC ([21]; PS 96-well plates): 8 µg/mL (≈ 17.1 µM)
C[C@@H](O)[C@H]1C(=O)N2C(C(=O)O)=C(S[C@@H]3CN[C@H](C(=O)N(C)C)C3)[C@H](C)[C@H]12 [meropenem #413, meropenem]	0.125 to 0.25 µg/mL (≈ 0.326 to 0.652 µM)	0.5 µg/mL (≈ 1.3 µM)	> 8 µg/mL	>8 µg/mL	8 µg/mL (≈ 20.9 µM)	> 8 µg/mL	0.125 µg/mL (≈ 0.326 µM)	4 µg/mL (≈ 10.4 µM)	2 µg/mL (≈ 5.22 µM)	1 µg/mL (≈ 2.61 µM)	> 8 µg/mL	> 8 µg/mL	1 to 2 µg/mL (≈ 2.61 to 5.22 µM)	0.5 µg/mL (≈ 1.3 µM)	2 to 4 µg/mL (≈ 5.22 to 10.4 µM)	2 µg/mL (≈ 5.22 µM)	0.03 µg/mL (≈ 0.0782 µM)	0.016 µg/mL (≈ 0.0417 µM)	0.03 to 0.06 µg/mL (≈ 0.0782 to 0.156 µM)	0.03 µg/mL (≈ 0.0782 µM)	Minimum inhibitory concentration (MIC) [18]: >8 µg/mL; MIC [18]: > 8 µg/mL; MIC ([19]; NBS 96-well plates): 0.0625 µg/mL (≈ 0.163 µM); MIC ([19]; PS 96-well plates): 0.03 µg/mL (≈ 0.0782 µM); Minimum inhibitory concentration (MIC) ([19]; NBS 96-well plates): 0.06 µg/mL (≈ 0.156 µM); Minimum inhibitory concentration (MIC) [20]: >8 µg/mL; MIC [20]: > 8 µg/mL; MIC ([21]; NBS 96-well plates): 0.0625 µg/mL (≈ 0.163 µM); MIC ([21]; PS 96-well plates): 0.03 µg/mL (≈ 0.0782 µM)
